Measured values from patent US8097759B2, “Inflammatory cytokine release inhibitor” (Institute of Medicinal Molecular Design, Inc., priority 2000, dated 2012).

System: NF-κB activation
Assay: NF-κB activation reporter assay (pNFκB-Luc luciferase) under TNF-α stimulation
Format: cell-based, human
Conditions: HepG2 or HeLa cells, TNF-α 40 ng/ml, 4 hours; for inhibition at 1 µg/mL / inhibition at 10 µg/mL: Homo sapiens, read-out: The rate of inhibitory activity against NF-κB activation (%)
Description: Using a transfection reagent (Effectene; QIAGEN), the human hepatoma cell strain HepG2 or the human hysterocarcinoma cell strain HeLa was transfected with the firefly luciferase gene (Luc) contained plasmid (pNF κB-Luc Reporter Plasmid; […]) which contained oligonucleotide having five tandem copies of NF-κB binding sequences ([…]) on a upstream region of Luc, according to the QUAGEN's protocol and it was incuvated for 6-24 hours. After addition of TNF-α (40 ng/ml) with or without the test compound, the cells were incuvated for 4 hours, and intracellular luciferase activity was measured with PicaGene LT (TOYO INK MFG Co., Ltd.) and chemical luminescence measurement device ([…]luor Plus; TECAN). The inhibition ratio was measured as a ratio to the value of the luciferase activity without the test compound.

[1] = Concentration of the agent: 1 μg/mL
[2] = Concentration of the agent: 10 μg/mL

Row | The rate of inhibitory activity against NF-κB activation (%) [1] [%] | The rate of inhibitory activity against NF-κB activation (%) [2] [%] | Molecule | inhibition at 1 µg/mL [1] [%] | inhibition at 10 µg/mL [2] [%]
1 |  |  | CN(C(=O)c1cc(Cl)ccc1O)c1cc(C(F)(F)F)cc(C(F)(F)F)c1 [Compound 16, N-[3,5-Bis(trifluoromethyl)phenyl]-5-chloro-2-hydroxy-N-methylbenzamide] | 36.4 | 91.6
2 |  |  | O=C(Nc1nccs1)c1cc(Br)ccc1O [Compound 180] | -23.1 | 42.8
3 | 7.1 | 78.6 | 5-Bromo-N-(3,5-dichloro)phenyl-2-hydroxybenzenesulfonamide [Compound 10] |  | 
4 |  |  | O=C(Nc1ccccc1)c1cc(Br)ccc1O [Compound 139] | -48.2 | 60.2
5 |  |  | O=C(Nc1cnc2ccccc2c1)c1cc(Cl)ccc1O [Compound 46, 5-Chloro-2-hydroxy-N-(quinolin-3-yl)benzamide] | -43.7 | 85.7
6 |  |  | O=C(Nc1cc([N+](=O)[O-])cc([N+](=O)[O-])c1)c1cc(Br)ccc1O [Compound 158] | 91 | 95.6
7 |  |  | O=C(Nc1cc(C(F)(F)F)ccc1N1CCCC1)c1cc(Br)ccc1O [Compound 126] | 95.8 | 97.8
8 |  |  | O=C(Nc1nc(-c2ccccc2)cs1)c1cc(Br)ccc1O [Compound 202] | -41.8 | 78.8
9 |  |  | O=C(Nc1cc(Cl)ccc1O)c1cc(Cl)cc(Cl)c1 [Compound 12, N-(5-Chloro-2-hydroxyphenyl)-3,5-dichlorobenzamide] | 68.6 | 87.3
10 |  |  | O=C(Nc1nc(Cc2ccccc2)c(-c2ccccc2)s1)c1cc(Br)ccc1O [Compound 205] | 79.7 | 95
11 |  |  | O=C(Nc1ccc(C(F)(F)F)cc1)c1cc(Cl)ccc1O [Compound 128] | 87.2 | 95
12 |  |  | CCOC(=O)c1c(NC(=O)c2cc(Cl)ccc2O)sc2c1CCCC2 [Compound 35, 2-(5-Chloro-2-hydroxybenzoyl)amino-4,5,6,7-tetrahydrobenzo[b]-thiophene-3-carboxylic acid ethyl ester] | 88.2 | 85.4
13 |  |  | O=C(Nc1cc(Cl)cc(Cl)c1)c1ccc(Cl)cc1O [Compound 151] | -42.8 | 71.8
14 |  |  | CC(C)(C)c1ccc(C(C)(C)C)c(NC(=O)c2cc(Cl)ccc2O)c1 [Compound 159] | 89.1 | 96.3
15 |  |  | O=C(Nc1cc(C(F)(F)F)cc(C(F)(F)F)c1)c1c(O)[nH]c2cc(Cl)ccc12 [Compound 28, N-[3,5-Bis(trifluoromethyl)phenyl]-6-chloro-2-hydroxyindole-3-carboxamide] | 16.3 | 41.7
16 |  |  | O=C(Nc1c(F)c(F)c(F)c(F)c1F)c1cc(Cl)ccc1O [Compound 157] | 86.2 | 98.1

Row | The rate of inhibitory activity against NF-κB activation (%) [1] [%] | The rate of inhibitory activity against NF-κB activation (%) [2] [%] | Molecule | inhibition at 1 µg/mL [1] [%] | inhibition at 10 µg/mL [2] [%]
17 |  |  | O=C(Nc1ccccc1)Nc1ccc(O)c(C(=O)Nc2cc(C(F)(F)F)cc(C(F)(F)F)c2)c1 [Compound 91] | 20.5 | 88.4
18 |  |  | O=C(Nc1cc(C(F)(F)F)cc(C(F)(F)F)c1)c1cc(-c2cccs2)ccc1O [Compound 72] | 79.5 | 97.8
19 |  |  | O=C(Nc1cc(C(F)(F)F)cc(C(F)(F)F)c1)c1ccc(O)c(C(=O)Nc2cc(C(F)(F)F)cc(C(F)(F)F)c2)c1 [Compound 82] | -8.7 | 94.5
20 |  |  | CC(=O)Nc1cc(O)c(C(=O)Nc2cc(C(F)(F)F)cc(C(F)(F)F)c2)cc1Cl [Compound 97] | 69.9 | 96
21 |  |  | O=C(Nc1cccc2ccccc12)c1ccccc1O [Compound 31, 2-Hydroxy-N-(1-naphthyl)benzamide] | 13.3 | 93.2
22 |  |  | O=C(Nc1cc(C(F)(F)F)cc(C(F)(F)F)c1)c1cc(C=Cc2ccccc2)ccc1O [Compound 63] | 95.5 | 96.9
23 |  |  | O=C(Nc1cc(C(F)(F)F)cc(C(F)(F)F)c1)c1ncccc1O [Compound 27, N-[3,5-Bis(trifluoromethyl)phenyl]-3-hydroxypyridine-2-carboxamide] | 68.5 | 47.3
24 | 36.7 | 65.8 | CC(=O)Oc1ccc(Cl)cc1C(=O)Nc1cc2ccccc2[nH]1 [Compound 44, 2-Aceoxy-5-chloro-N-(indol-2-yl)benzamide] |  | 
25 |  |  | O=C(Nc1ccc(C(F)(F)F)cc1Cl)c1cc(Br)ccc1O [Compound 129] | 75.4 | 85.8
26 |  |  | COc1ccc(OC)c(NC(=O)c2cc(Br)ccc2O)c1 [Compound 167] | 32.4 | 95.7
27 |  |  | COc1ccc(CCC(=O)c2cc(Cl)ccc2O)cc1 [Compound 5, 1-(5-Chloro-2-hydroxyphenyl)-3-(4-methoxyphenyl)propan-1-one] | 33.3 | 98
28 |  |  | O=C(Nc1ccc(O)c(C(=O)Nc2cc(C(F)(F)F)cc(C(F)(F)F)c2)c1)c1ccccc1 [Compound 90] | 1 | 63.4
29 | 3.9 | 81.9 | O=C(Nc1nnc(C(F)(F)F)s1)c1ccccc1O [Compound 40, 2-Hydroxy-N-5-[(trifluoromethyl)-1,3,4-thiadiazol-2-yl]benzamide] |  | 
30 |  |  | O=C(Nc1cc(C(F)(F)F)cc(C(F)(F)F)c1)c1nc2ccccc2nc1O [Compound 29, N-[3,5-Bis(trifluoromethyl)phenyl]-3-hydroxyquinoxaline-2-carboxamide] | 46.3 | 73
31 | 26.1 | 90.3 | O=C(Nc1nnc(C(F)(F)F)s1)c1cc(Br)ccc1O [Compound 41] |  | 
32 |  |  | O=C(Nc1cc(Cl)cc(Cl)c1)c1cc(Br)ccc1O [Compound 148] | 77.1 | 92.8

Row | Molecule | The rate of inhibitory activity against NF-κB activation (%) [1] [%] | The rate of inhibitory activity against NF-κB activation (%) [2] [%] | inhibition at 1 µg/mL [1] [%] | inhibition at 10 µg/mL [2] [%]
33 | CC(=O)Oc1ccccc1C(=O)Nc1cc(C(F)(F)F)cc(C(F)(F)F)c1 [Compound 95, 2-Acetoxy-[3,5-bis(trifluoromethyl)phenyl]benzamide] | 90.9 | 97.1 |  | 
